Legend:
Assay in all cases: relative viability (nuclei count vs DMSO), 5 days (fraction); higher = more cells survive
[1] = compound: C1=CC=C2C(=C1)N=C(S2)C(C#N)C3=NC(=NC=C3)NCCC4=CN=CC=C4
Summary of the method: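 Five library-drug doses, separated by factors of √10, were pinned into 1536-well plates holding lung cancer cell lines after an overnight stay at 37 °C. Cells were fixed, permeabilised and Hoechst-stained in one step after 5 days without medium change, then imaged at 4×. Viability compares treated-well with vehicle-well nuclei, counted in MetaXpress, as a median across plates. Passing plates had control CV below 25% and at least one doubling.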

[2] = compound: C1=CC=C2C(=C1)N=C(S2)C(C#N)C3=NC(=NC=C3)NCCC4=CN=CC=C4 + Cc1cc(Nc2cc(N3CCN(C)CC3)nc(Sc3ccc(NC(=O)C4CC4)cc3)n2)n[nH]1 [Tozasertib] (partner 0.1 µM)
Summary of the method: (§1)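 Nuclei were stained with Hoechst during a one-step fixation (final 0.05% Triton X-100, 1% formaldehyde, 1 ug/ml Hoechst) carried out 5 days after dosing, then counted on 4× images. The cells, lung cancer lines in 1536-well plates, had been dosed by pin tool the day after seeding with one drug alone or a fixed anchor-drug dose plus five library-drug doses (not always all listed) in √10 steps. Relative viability is the nuclei count in treated wells divided by that in vehicle wells, and each value is the median of duplicate plates.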

[3] = compound: C#Cc1cccc(Nc2ncnc3cc(OC)c(OCCCCCCC(=O)NO)cc23)c1 [CUDC-101] + COc1cc2c(Oc3ccc(NC(=O)C4(C(=O)Nc5ccc(F)cc5)CC4)cc3F)ccnc2cc1OCCCN1CCOCC1 [Foretinib] (partner 0.25 µM)
Summary of the method: as §1

[4] = compound: C#Cc1cccc(Nc2ncnc3cc(OC)c(OCCCCCCC(=O)NO)cc23)c1 [CUDC-101] + CS(=O)(=O)CCNCc1ccc(-c2ccc3ncnc(Nc4ccc(OCc5cccc(F)c5)c(Cl)c4)c3c2)o1 [Lapatinib] (partner 2 µM)
Summary of the method: as §1

| Cell Line | relative viability ([1]; 0.005 µM) | relative viability ([1]; 0.01581 µM) | relative viability ([1]; 0.05 µM) | relative viability ([1]; 0.1581 µM) | relative viability ([1]; 0.5 µM) | relative viability ([2]; first compound 0.005 µM) | relative viability ([2]; first compound 0.01581 µM) | relative viability ([2]; first compound 0.05 µM) | relative viability ([2]; first compound 0.1581 µM) | relative viability ([2]; first compound 0.5 µM) | relative viability ([3]; first compound 0.01 µM) | relative viability ([3]; first compound 0.03162 µM) | relative viability ([3]; first compound 0.1 µM) | relative viability ([3]; first compound 0.3162 µM) | relative viability ([3]; first compound 1 µM) | relative viability ([4]; first compound 0.01 µM) | relative viability ([4]; first compound 0.03162 µM) | relative viability ([4]; first compound 0.1 µM) | relative viability ([4]; first compound 0.3162 µM) | relative viability ([4]; first compound 1 µM) |
| --- | --- | --- | --- | --- | --- | --- | --- | --- | --- | --- | --- | --- | --- | --- | --- | --- | --- | --- | --- | --- |
| NCI-H2228 | 0.839 | 1.12 | 0.962 | 1.17 | 0.956 | 0.251 | 0.232 | 0.211 | 0.187 | 0.226 | 0.763 | 0.939 | 1.11 | 0.964 | 0.719 | 1.06 | 1.49 | 1.12 | 0.977 | 0.412 |
| NCI-H2347 | 1.11 | 1.09 | 0.995 | 1.05 | 1.02 | 0.758 | 0.533 | 0.574 | 0.599 | 0.412 | 0.888 | 0.948 | 0.902 | 0.99 | 0.689 | 1.08 | 0.918 | 1.03 | 1.05 | 0.91 |
| HCC-15 | 0.96 | 0.989 | 1.03 | 1.12 | 0.919 | 0.343 | 0.411 | 0.316 | 0.315 | 0.273 | 1.09 | 0.993 | 0.966 | 1.09 | 0.933 | 0.857 | 0.908 | 0.831 | 0.845 | 0.698 |
| NCI-H23 | 0.691 | 0.941 | 0.967 | 1.24 | 1.02 | 0.634 | 0.304 | 0.35 | 0.301 | 0.343 | 1.06 | 1 | 1.04 | 1.06 | 0.949 | 1.08 | 0.963 | 1.19 | 0.918 | 0.559 |
| LC-2-ad | 0.923 | 0.9 | 0.999 | 1.11 | 0.961 | 0.358 | 0.433 | 0.405 | 0.449 | 0.437 | 0.863 | 0.947 | 0.904 | 0.899 | 0.52 | 0.984 | 1.02 | 1.06 | 0.863 | 0.198 |
| LCLC-97TM1 | 0.944 | 0.991 | 0.974 | 1.13 | 1.08 | 0.294 | 0.214 | 0.273 | 0.256 | 0.281 | 0.844 | 0.824 | 0.962 | 0.829 | 0.666 | 0.905 | 0.766 | 1.13 | 1.01 | 0.807 |
| HOP-62 | 0.951 | 1.08 | 1.01 | 1.24 | 1.07 | 0.291 | 0.42 | 0.398 | 0.366 | 0.372 | 1.08 | 1.08 | 1.1 | 1.14 | 0.713 | 1.03 | 0.909 | 1.05 | 0.768 | 0.821 |

Reference: the supplement of paper PMC10307832
